Measurements taken from patent publication US20160009752A1, “[…]-OXIMINO-AMINOALKYLETHERS AND PROCESS FOR PREPARATION THEREOF, USEFUL AS ANTIDIABETIC AND […] AGENTS” (COUNCIL OF SCIENTIFIC & INDUSTRIAL RESEARCH, priority 2013, published 2016).
Marks after values point to notes of the source that are not given here.

What was measured:
[1] = system: Triton-induced hyperlipidemic rat model; assay: Antidyslipidaemic activity in Triton-induced hyperlipidemic rat model; format: in vivo; settings: summary of Tables 1-2
Protocol: Male charles foster rats weighing around 200 to 225 g were divided into control, dyslipidemic and dyslipidemic plus drug treated groups containing six animals in each group. Dyslipidemia was induced by administration of triton WR-1339 (200 mg/kg intraperitoneally). All animals were maintained on a special pellet diet and water ad libitum. Test compounds and standard drug (Gemfibrozil) were macerated in 0.2% aqueous gum acacia. The fine suspension of test compounds and standard drug were fed orally to the respective groups at the dose of 100 mg/kg simultaneously with triton WR-1339 in drug treated group. The animals of control group received the same amount of gum acacia by similar route of administration. […]
Total plasma cholesterol was estimated using the kit and instructions as provided by the manufacturer Roche Diagnostics. […] The hydrogen peroxide combines with hydroxybenzoic acid (HBA) and 4-aminoantipyrine (4-AAA) in the presence of peroxidase (POD) to form a red chromophore (quinoneimine) which is quantitated at 500-505 nm. […]
Total plasma triglycerides were estimated using the kit and instructions as provided by the manufacture i.e. Roche Diagnostics. […] In the presence of peroxidase, hydrogen peroxide oxidatively couples with 4-aminoantipyrine and 4-chlorophenol to produce red chromophore quinonimine which is quantitated at 500-505 nm. […]

sucrose loaded rat = assay: Sucrose loaded rat model (SLM), oral tolerance test; format: in vivo; parameters: % Antihyperglycemic activity SLM: concentration or dose not given beside the values; settings: for % Antihyperglycemic activity SLM: Table 2, sucrose loaded rat
Text: On the day of experiment blood glucose of all the overnight fasted animals was checked by Glucostrips (Roche) using Glucometer (ACCU-CHEK II; Roche Diagnostics, USA). […] Animals were divided into groups consisting of five animals in each. […] The test compounds and standard drug was always prepared in the vehicle 1% gum acacia. […] Food (not water) was removed from the cages during the experimental period. […] Comparing the AUC of test sample or drug treated groups compared to control group determined the percent improvement in OGTT by test sample and standard drugs and termed as antihyperglycaemic activity. Statistical analysis between the groups was done by employing Students t test

[2] = system: sucrose challenged low dosed STZ-induced diabetic rats; assay: Sucrose challenged low dosed streptozotocin-induced diabetic rats (STZ-S); format: in vivo, rat; settings: for % Antihyperglycemic activity STZ-S 0-5 hr / % Antihyperglycemic activity STZ-S 0-24 hr: Table 2
Protocol: Fasting blood glucose level of each animal was measured after 48 hours post STZ injection by Glucostrips (Roche) using Glucometer (ACCU-CHEK II; Roche Diagnostics, USA) and animals showing blood glucose level above 280 mg/dl were considered as diabetic. The diabetic rats with fasting blood glucose values varying between […] were included in this study. Animals were divided into groups consisting of five animals in each. Group one was considered as a control group, where as the other groups were termed as experimental groups. […] The test samples and standard drug (Metformin) was always prepared in the vehicle 1% gum acacia. […] Food (not water) was removed from the cages during the experimental period. […] The percent decline in AUC of the experiment group compared to sham treated control group termed as % antihyperglycaemic activity. Statistical analysis between the groups was done by employing Students t test.

[3] = system: STZ-induced diabetic rats; assay: Streptozotocin-induced diabetic rat model (STZ); format: in vivo; settings: 100 mg/kg
Protocol: Male albino rats (Sprague Dawley Strain) of body weight 160±20 g were procured from the colony of CDRI Animal House. 4 to 5 animals were kept in one polypropylene cage and acclimatized for one week in the new environment. The animals were made diabetic by injecting streptozotocin (STZ) intraperitoneally to the overnight starved animals at a dose of 60 mg/kg prepared in 100 mM citrate buffer (pH 4.5). Fasting blood glucose level of each animal was measured after 48 hours post STZ injection by Glucostrips (Roche) using Glucometer (ACCU-CHEK II; Roche Diagnostics, USA) and animals showing blood glucose level above 280 mg/dl were considered as diabetic. The diabetic rats with fasting blood glucose values varying between 280-450 mg/dl were included in this study. Animals were divided into groups consisting of five animals in each. Group one was considered as a control group, where as the other groups were termed as experimental groups. Rats of experimental group were usually given 100 mg/kg body weight of the test samples unless stated otherwise and standard drug i.e. metformin, respectively. The test samples and standard drug i.e. metformin was always prepared in the vehicle 1% gum acacia. 30 min post administration of the test samples/vehicle/standard drug, blood glucose levels of the animals of all the groups were measured at 30, 60, 90, 120, 180, 240, 300 and 1440 min. Food (not water) was removed from the cages during the experimental period. A plot was drawn between time and blood glucose levels on x and y axis, respectively and the area under curve (AUC) between 0 to 300 min were calculated of each group. The percent decline in AUC of the experiment group compared to sham treated control group termed as % antihyperglycaemic activity. Statistical comparison between the groups was done by employing Student's ‘t’ test.

CCCCO/N=C(/C)C1=CC[C@H]2[C@@H]3CC=C4C[C@@H](O)CC[C@]4(C)[C@H]3CC[C@]12C [Compound 10a, 3β-Hydroxy-pregna-5,16-dien-20-one-O-n-butyl-oxime]
antidyslipidemic / antidiabetic activity, summary in words [1]: mainly antidyslipidemic activity

C/C(=N/OCc1ccccc1)C1=CC[C@H]2[C@@H]3CC=C4C[C@@H](O)CC[C@]4(C)[C@H]3CC[C@]12C [Compound 10b, 3β-Hydroxy-pregna-5,16-dien-20-one-O-benzyl-oxime]
antidyslipidemic / antidiabetic activity, summary in words [1]: mainly antidyslipidemic activity

C/C(=N\OCCN1CCCCC1)C1=CC[C@H]2[C@@H]3CC=C4C[C@@H](O)CC[C@]4(C)[C@H]3CC[C@]12C [Compound 11a, 3β-Hydroxy-pregna-5,16-dien-20-one-O-(2-piperidinyl-ethyl)-oxime]
% Antihyperglycemic activity SLM (sucrose loaded rat): 27.15%
melting point: 135 to 138 °C

C/C(=N\OCCN1CCCCCC1)C1=CC[C@H]2[C@@H]3CC=C4C[C@@H](O)CC[C@]4(C)[C@H]3CC[C@]12C [Compound 11b, 3β-Hydroxypregna-5,16-dien-20-one-O-(2-azepan-1-yl-ethyl)-oxime]
% Antihyperglycemic activity SLM (sucrose loaded rat): 16.5%
melting point: 127 to 130 °C

CCN(CC)CCO/N=C(\C)C1=CC[C@H]2[C@@H]3CC=C4C[C@@H](O)CC[C@]4(C)[C@H]3CC[C@]12C [Compound 11d, 3β-Hydroxypregna-5,16-dien-20-one-O-(2-diethylamino-ethyl)-oxime]
% Antihyperglycemic activity SLM (sucrose loaded rat): 13.1%
melting point: 156 to 160 °C

C/C(=N\OCCN1CCCC1)[C@H]1CC[C@H]2[C@@H]3CC=C4C[C@@H](O)CC[C@]4(C)[C@H]3CC[C@]12C [Compound 14a, 3β-Hydroxy-pregna-5-en-20-one-O-(2-pyrrolidin-1-yl-ethyl)-oxime]
% Antihyperglycemic activity SLM (sucrose loaded rat): 42.4%
anti-diabetic activity, in words (sucrose loaded rat; all the models including db/+ mice models): better anti-diabetic activity
% Antihyperglycemic activity STZ-S 0-5 hr [2]: 9.96%
% Antihyperglycemic activity STZ-S 0-24 hr [2]: 3.07%
melting point: 140 to 142 °C

C/C(=N\OCC(O)CNC(C)(C)C)[C@H]1CC[C@H]2[C@@H]3CC=C4C[C@@H](O)CC[C@]4(C)[C@H]3CC[C@]12C (stereo partly drawn) [Compound 16a, 3β-Hydroxy-pregna-5-en-20-one-O-[2-hydroxy-3-tert.-butylamino-propyl]-oxime]
% Antihyperglycemic activity SLM (sucrose loaded rat): 37.7%
melting point: > 200 °C

COc1ccccc1N1CCN(CC(O)CO/N=C(/C)C2CCC3C4CC=C5CC(O)CCC5(C)C4CCC23C)CC1 (stereo not drawn) [Compound 16d, 3β-Hydroxy-pregna-5-en-20-one-O-{2-hydroxy-3-[4-(2-methoxyphenyl)-Piperzin-1-yl]-propyl}-oxime]
% Antihyperglycemic activity SLM (sucrose loaded rat): 13.9%
melting point: 145 to 149 °C

CN(C)C(=N)N=C(N)N [Metformin, reference compound]
Blood glucose profile, 0 min post glucose load (sucrose loaded rat; 100 mg/kg): 94.8 ± 2.1 mg/dL
Blood glucose profile, 30 min post glucose load (sucrose loaded rat; 100 mg/kg): 111.4 ± 7.8 mg/dL
Blood glucose profile, 60 min post glucose load (sucrose loaded rat; 100 mg/kg): 105.8 ± 2.1 mg/dL
Blood glucose profile, 90 min post glucose load (sucrose loaded rat; 100 mg/kg): 94.0 ± 2.0 mg/dL
Blood glucose profile, 120 min post glucose load (sucrose loaded rat; 100 mg/kg): 84.2 ± 1.3 mg/dL
% Antihyperglycaemic activity (improvement in OGTT post sucrose load) (sucrose loaded rat; 100 mg/kg, AUC 0-120 min vs control, normal rats): 24.4*** %
% Antihyperglycemic activity SLM (sucrose loaded rat): 21.1%
% Antihyperglycemic activity 0-300 min ([2]; 100 mg/kg): 23.7%**
% Antihyperglycemic activity 0-1440 min ([2]; 100 mg/kg): 23.1%**
Blood glucose level, 0 min post sucrose load ([2]; 100 mg/kg): 222.2 ± 19.9 mg/dL
Blood glucose level, 30 min post sucrose load ([2]; 100 mg/kg): 457.4 ± 17.2 mg/dL
Blood glucose level, 60 min post sucrose load ([2]; 100 mg/kg): 524.2 ± 18.9 mg/dL
Blood glucose level, 90 min post sucrose load ([2]; 100 mg/kg): 468.2 ± 11.3 mg/dL
Blood glucose level, 120 min post sucrose load ([2]; 100 mg/kg): 416.0 ± 12.2 mg/dL
Blood glucose level, 180 min post sucrose load ([2]; 100 mg/kg): 373.6 ± 11.4 mg/dL
Blood glucose level, 240 min post sucrose load ([2]; 100 mg/kg): 345.0 ± 10.6 mg/dL
Blood glucose level, 300 min post sucrose load ([2]; 100 mg/kg): 310.8 ± 2.6 mg/dL
Blood glucose level, 1440 min post sucrose load ([2]; 100 mg/kg): 392.8 ± 9.9 mg/dL
% Antihyperglycemic activity 0-300 min ([2]; 100 mg/kg, listed as metformin): 23.7%
% Antihyperglycemic activity 0-1440 min ([2]; 100 mg/kg, listed as metformin): 23.1%
% Antihyperglycemic activity STZ-S 0-5 hr [2]: 25.8%
% Antihyperglycemic activity STZ-S 0-24 hr [2]: 33.2%
Blood glucose level, 0 min post sucrose load [3]: 358.4 ± 14.5 mg/dL
Blood glucose level, 30 min post sucrose load [3]: 450.0 ± 21.8 mg/dL
Blood glucose level, 60 min post sucrose load [3]: 419.0 ± 10.5 mg/dL
Blood glucose level, 90 min post sucrose load [3]: 399.0 ± 7.7 mg/dL
Blood glucose level, 120 min post sucrose load [3]: 351.0 ± 16.0 mg/dL
Blood glucose level, 180 min post sucrose load [3]: 349.6 ± 10.1 mg/dL
Blood glucose level, 240 min post sucrose load [3]: 337.0 ± 7.7 mg/dL
Blood glucose level, 300 min post sucrose load [3]: 299.8 ± 5.0 mg/dL
Blood glucose level, 1440 min post sucrose load [3]: 445.6 ± 13.9 mg/dL
